Laboratory results from patent publication US20080319191A1, “Crystalline form IV of linezolid” (Teva Pharmaceutical Industries Ltd., priority 2005, published 2008).

Key:
Format in all cases: physicochemical
[1] = Stability of linezolid Form IV stored 10 days at 0-100% relative humidity at room temperature
Experimental: The stability of linezolid Form IV was tested by storing it for 10 days at a relative humidity of between 0 and 100% at room temperature.

[2] = Long term stability of linezolid Form IV at room temperature and accelerated conditions (40° C. and 55° C.)
Experimental: The long term stability of linezolid Form IV was tested by storing it at room temperature and under accelerated conditions at 40° C. and 55° C.

[3] = Chemical stability of Form IV obtained by heating Form II at 170° C.; details: Form IV obtained at 170° C. (one hour)
Experimental: Crystalline linezolid Form IV may be prepared by heating crystalline linezolid Form II to a temperature higher than 85° C. Crystalline linezolid Form IV is obtained by keeping crystalline linezolid Form II at a temperature of between 85-175° C. As an example, crystalline linezolid Form II was kept at a temperature of 170° C. during one hour. The polymorphic form of crystalline linezolid Form II was changed to crystalline linezolid Form IV.

CC(=O)NC[C@H]1CN(c2ccc(N3CCOCC3)c(F)c2)C(=O)O1 [linezolid Form IV]
chemically stable: Chemical stability [3]
Form IV: Crystal form after storage (Results) ([2]; 25° C., 1 M) | Crystal form after storage (Results) ([2]; 25° C., 2 M) | Crystal form after storage (Results) ([2]; 25° C., 3 M) | Crystal form after storage (Results) ([2]; 25° C., As is) | Crystal form after storage (Results) ([2]; 40° C., 1 M) | Crystal form after storage (Results) ([2]; 40° C., 2 M) | Crystal form after storage (Results) ([2]; 40° C., 3 M) | Crystal form after storage (Results) ([2]; 55° C., 1 M) | Crystal form after storage (Results) ([2]; 55° C., 2 M) | Crystal form after storage (Results) ([2]; 55° C., 3 M)
non-hygroscopic: Hygroscopicity ([1]; between 0-100% RH)
0.1%: Solvent content ([1]; As is (before storage)) | Solvent content ([1]; relative humidity 0%, 10 days, room temperature) | Solvent content ([1]; relative humidity 20%, 10 days, room temperature) | Solvent content ([1]; relative humidity 40%, 10 days, room temperature) | Solvent content ([1]; relative humidity 60%, 10 days, room temperature) | Solvent content ([1]; relative humidity 80%, 10 days, room temperature) | Solvent content ([1]; relative humidity 100%, 10 days, room temperature)
stable: Stability ([1]; between 0-100% RH)
≥ 3 months: Time stable on storage ([2]; 25° C., 40° C., and 55° C.)
at least 10 days: Time stable against transformation into Form II upon storage ([1]; relative humidity of about 0% to about 100%, room temperature)
